Experimental data published in PubChem BioAssay AID1918998 (Molecular Pharmacology Branch, DTP, NCI, 2023).

Tested on: 521955-158-R2-J5-PDC complex spheroid growth
Assay: Anticancer human tumor 521955-158-R2-J5-PDC patient-derived pancreatic carcinoma cell line growth inhibition [AhR]
Details: for IC50: curve of first compound; for viability, T/C: stronger effect = lower value
Excerpt: Multicellular complex tumor spheroid response to aryl hydrocarbon receptor antagonists in combination with a variety of drugs and investigational agents in selected tumor cell lines
The current study was undertaken to assess response to aryl hydrocarbon receptor antagonists in combination with standard-of-care drugs and investigational agents in solid tumor complex spheroid models. Complex spheroids include a stromal component modeled by human endothelial cells (HUVEC) and fibroblasts modeled by human mesenchymal stem cells (MSCs). The concentration ranges selected for each drug and investigational agent were based upon clinically achievable concentrations if the clinical Cmax of the agent was known.
Compounds. The drugs and investigational agents: BAY 2416964 (NSC825713), GNF351 (NSC835774), CH-223191 (NSC835775), CPI-455 (NSC825282), aza-TdCyd (NSC777586), decitabine (NSC127716), belinostat (NSC758774), entinostat (NSC756642), pevonedistat (NSC761192), tazemetostat (NSC777109), talazoparib (NSC765396), olaparib (NSC753686), selinexor (NSC780203), nedisertib (M3814, NSC802822), bortezomib (NSC756655), venetoclax (NSC766270), doxorubicin (NSC123127), elimusertib (BAY189344, NSC800525), ceralasertib (AZD6738, NSC777638), TAK-243 (NSC785004), alisertib (NSC759677), etoposide (NSC141540), topotecan (NSC609699), eribulin (NSC707389), gemcitabine (NSC613327), carboplatin (NSC241240), cisplatin (NSC119875), and SN-38 (NSC673596) were obtained from the National Cancer Institute (NCI) Developmental Therapeutics Program Chemical Repository (32). The FDA-approved anticancer drug set is available from the Developmental Therapeutics Program at https://dtp.cancer.gov/organization/dscb/obtaining/available plates.htm. […] The stock solutions were prepared in dimethyl sulfoxide (DMSO, Sigma-Aldrich, St. Louis, MO, cat. D2650), except for the platinum compounds which were prepared in saline (Quality Biological, Gaithersburg, MD, cat. 114-055-101), at 800-fold the tested concentration and stored at -70 degrees C prior to their use. All drugs and investigational agents were tested over a range starting from a high concentration at or near the clinical Cmax and decreasing in half-log increments. If the clinical Cmax for an agent had not been determined, the highest concentration tested was 10 microM (Table 1).
Cell Culture. All cells were maintained in an incubator at 37 degrees C and 5% CO2 with 95% humidity. The PDC lines were cultured according to standard operating procedures established by the NCI PDMR (https://pdmr.cancer.gov). Briefly, all PDCs were thawed and cultured in Matrigel-coated flasks prepared with a working solution of 1X Ham's F-12 nutrient mix, without supplementation (Invitrogen, Waltham, MA, cat. 11765054), 100 U/mL penicillin-streptomycin (Invitrogen, cat. 15140122), and 2.5% Matrigel (Corning Inc., Corning, NY, cat. 354248) for the first three passages. All PDCs were cultured in complete DMEM/F-12 media containing advanced DMEM/F-12 (Invitrogen, cat. 12634028), 4.9% defined fetal bovine serum, heat inactivated (HyClone Laboratories Inc., Logan, UT, cat. SH30070.03HI), 389 ng/mL hydrocortisone (Sigma-Aldrich, cat. H4001), 9.7 ng/mL human EGF recombinant protein (Invitrogen, cat. PHG0313), 23.4 microg/mL adenine (Sigma-Aldrich, cat. A2786), 97.3 U/mL penicillin-streptomycin (Invitrogen, cat. 15140122), 1.9 mM L-glutamine (Invitrogen, cat. 25030081), and 9.7 microM Y-27632 dihydrochloride (Tocris Bioscience, Bristol, United Kingdom, cat. 1254). The PDCs were cultured in complete DMEM/F12 media without 10 microM Y-27632 dihydrochloride for at least two passages prior to the screen. The established cell lines NCI-H1341 and […] were cultured in DMEM/F-12, HEPES (Invitrogen, cat. 11330032), 5% defined fetal bovine serum (HyClone Laboratories Inc., cat. SH30070.03), ITS premix universal culture supplement [insulin (5 microg/mL), transferrin (5 microg/mL), and selenious acid (5 ng/mL)] […]

[1] = second compound 0.1 µM, first compound 0.0316 µM
[2] = second compound 0.1 µM, first compound 0.1 µM
[3] = second compound 0.1 µM, first compound 0.316 µM
[4] = second compound 0.1 µM, first compound 1 µM
[5] = second compound 0.1 µM, first compound 3.16 µM
[6] = second compound 0.1 µM, first compound 10 µM
[7] = second compound 0.316 µM, first compound 0.0316 µM
[8] = second compound 0.316 µM, first compound 0.1 µM
[9] = second compound 0.316 µM, first compound 0.316 µM
[10] = second compound 0.316 µM, first compound 1 µM
[11] = second compound 0.316 µM, first compound 3.16 µM
[12] = second compound 0.316 µM, first compound 10 µM
[13] = second compound 1 µM, first compound 0.0316 µM
[14] = second compound 1 µM, first compound 0.1 µM
[15] = second compound 1 µM, first compound 0.316 µM
[16] = second compound 1 µM, first compound 1 µM
[17] = second compound 1 µM, first compound 3.16 µM
[18] = second compound 1 µM, first compound 10 µM
[19] = second compound 3.16 µM, first compound 0.0316 µM
[20] = second compound 3.16 µM, first compound 0.1 µM
[21] = second compound 3.16 µM, first compound 0.316 µM
[22] = second compound 3.16 µM, first compound 1 µM
[23] = second compound 3.16 µM, first compound 3.16 µM
[24] = second compound 3.16 µM, first compound 10 µM
[25] = second compound 10 µM, first compound 0.0316 µM
[26] = second compound 10 µM, first compound 0.1 µM
[27] = second compound 10 µM, first compound 0.316 µM
[28] = second compound 10 µM, first compound 1 µM
[29] = second compound 10 µM, first compound 3.16 µM
[30] = second compound 10 µM, first compound 10 µM
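Wherever viability, T/C is given: spheroids mix tumor cells with HUVEC endothelium and human MSC stroma; luminescence taken as viability surrogate after a week of drug exposure.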

CCc1c2c(nc3ccc(O)cc13)-c1cc3c(c(=O)n1C2)COC(=O)[C@]3(O)CC + Cc1ccccc1N=Nc1ccc(NC(=O)c2ccnn2C)c(C)c1
IC50 (second compound 0.1 µM): 4.12 nM | IC50 (second compound 0.316 µM): 4.8 nM | IC50 (second compound 1 µM): 4.66 nM | IC50 (second compound 3.16 µM): 6.4 nM | IC50 (second compound 10 µM): 7.1 nM | viability, T/C (second compound 0.1 µM, first compound 0.000949 µM): 65.2% | viability, T/C (second compound 0.1 µM, first compound 0.003 µM): 56% | viability, T/C (second compound 0.1 µM, first compound 0.00949 µM): 36.5% | viability, T/C (second compound 0.1 µM, first compound 0.03 µM): 27% | viability, T/C (second compound 0.1 µM, first compound 0.0949 µM): 18.6% | viability, T/C (second compound 0.1 µM, first compound 0.3 µM): 13.8% | viability, T/C (second compound 0.316 µM, first compound 0.000949 µM): 74.3% | viability, T/C (second compound 0.316 µM, first compound 0.003 µM): 60.9% | viability, T/C (second compound 0.316 µM, first compound 0.00949 µM): 34.1% | viability, T/C (second compound 0.316 µM, first compound 0.03 µM): 22.3% | viability, T/C (second compound 0.316 µM, first compound 0.0949 µM): 17% | viability, T/C (second compound 0.316 µM, first compound 0.3 µM): 12.9% | viability, T/C (second compound 1 µM, first compound 0.000949 µM): 91.7% | viability, T/C (second compound 1 µM, first compound 0.003 µM): 61.8% | viability, T/C (second compound 1 µM, first compound 0.00949 µM): 30.2% | viability, T/C (second compound 1 µM, first compound 0.03 µM): 23.2% | viability, T/C (second compound 1 µM, first compound 0.0949 µM): 17.5% | viability, T/C (second compound 1 µM, first compound 0.3 µM): 14.3% | viability, T/C (second compound 3.16 µM, first compound 0.000949 µM): 95.3% | viability, T/C (second compound 3.16 µM, first compound 0.003 µM): 78.3% | viability, T/C (second compound 3.16 µM, first compound 0.00949 µM): 33.9% | viability, T/C (second compound 3.16 µM, first compound 0.03 µM): 23.5% | viability, T/C (second compound 3.16 µM, first compound 0.0949 µM): 15.3% | viability, T/C (second compound 3.16 µM, first compound 0.3 µM): 11.7% | viability, T/C (second compound 10 µM, first compound 0.000949 µM): 114% | viability, T/C (second compound 10 µM, first compound 0.003 µM): 89.8% | viability, T/C (second compound 10 µM, first compound 0.00949 µM): 35.1% | viability, T/C (second compound 10 µM, first compound 0.03 µM): 24.1% | viability, T/C (second compound 10 µM, first compound 0.0949 µM): 16.2% | viability, T/C (second compound 10 µM, first compound 0.3 µM): 11.5%

NS(=O)(=O)OCC1CC(n2ccc3c(NC4CCc5ccccc54)ncnc32)CC1O (stereo not given) + CC(CO)NC(=O)c1cc(-c2ccc(Cl)cc2)nn(-c2cnn(C)c2)c1=O
IC50 (second compound 0.1 µM): 486 nM | IC50 (second compound 0.316 µM): 484 nM | IC50 (second compound 1 µM): 492 nM | IC50 (second compound 3.16 µM): 371 nM | IC50 (second compound 10 µM): 232 nM | viability, T/C [1]: 87.2% | viability, T/C [2]: 92.5% | viability, T/C [3]: 61.7% | viability, T/C [4]: 29.5% | viability, T/C [5]: 20.6% | viability, T/C [6]: 18.7% | viability, T/C [7]: 93.1% | viability, T/C [8]: 90.2% | viability, T/C [9]: 61.1% | viability, T/C [10]: 30.5% | viability, T/C [11]: 19.5% | viability, T/C [12]: 18.3% | viability, T/C [13]: 90.5% | viability, T/C [14]: 97.7% | viability, T/C [15]: 62% | viability, T/C [16]: 31% | viability, T/C [17]: 21.6% | viability, T/C [18]: 20.7% | viability, T/C [19]: 85.5% | viability, T/C [20]: 83.1% | viability, T/C [21]: 49.8% | viability, T/C [22]: 31.3% | viability, T/C [23]: 20.8% | viability, T/C [24]: 14.7% | viability, T/C [25]: 68.8% | viability, T/C [26]: 66% | viability, T/C [27]: 41.6% | viability, T/C [28]: 31.2% | viability, T/C [29]: 19.2% | viability, T/C [30]: 15.2%

Nc1ccn(C2OC(CO)C(O)C2(F)F)c(=O)n1 (stereo not given) + Cc1cncc(-c2nc(NCCc3c[nH]c4ccccc34)c3ncn(C(C)C)c3n2)c1
IC50 (second compound 0.1 µM): 571 nM | IC50 (second compound 0.316 µM): 501 nM | IC50 (second compound 1 µM): 860 nM | IC50 (second compound 3.16 µM): 967 nM | IC50 (second compound 10 µM): 604 nM | viability, T/C [1]: 67.6% | viability, T/C [2]: 65.7% | viability, T/C [3]: 62.2% | viability, T/C [4]: 38.4% | viability, T/C [5]: 31.8% | viability, T/C [6]: 24.7% | viability, T/C [7]: 87.5% | viability, T/C [8]: 80.8% | viability, T/C [9]: 58.9% | viability, T/C [10]: 34.8% | viability, T/C [11]: 33.6% | viability, T/C [12]: 22.3% | viability, T/C [13]: 104% | viability, T/C [14]: 86% | viability, T/C [15]: 70.4% | viability, T/C [16]: 42.6% | viability, T/C [17]: 38.3% | viability, T/C [18]: 25.3% | viability, T/C [19]: 116% | viability, T/C [20]: 97.5% | viability, T/C [21]: 73.7% | viability, T/C [22]: 47.7% | viability, T/C [23]: 36% | viability, T/C [24]: 26.1% | viability, T/C [25]: 151% | viability, T/C [26]: 99.3% | viability, T/C [27]: 67.2% | viability, T/C [28]: 36% | viability, T/C [29]: 27.7% | viability, T/C [30]: 22.2%
